This note sets out measurements from patent US9833520B2, “Labeled, non-peptidic, multivalent integrin antagonist compounds; methods for synthesis and uses thereof” (The Methodist Hospital Research Institute, priority 2011, dated 2017).

“Also recorded” adds a separate entry of the source. Where two headings read alike, the source gives them in different places.

For one series, the target named is T1, purified human αvβ3 (Homo sapiens, UniProt P05106+P06756).
T1 construct: purchased Chemicon International, Temecula, Calif., USA
As to the kind of experiment: ELISA: competitive inhibition of biotinylated vitronectin binding to immobilized purified integrin αvβ3. The following applies: for higher binding affinity as compared to monomer 1 (IA): compared to IA 1. How it is done:
In vitro Binding Assay. […] Purified integrin αvβ3 protein (Chemicon International, Temecula, Calif., USA) was applied to 96-well polystyrene microtiter plates at 0.1 μg/well. After overnight incubation at 4° C., the plates were washed, and then blocked with milk solution (KPL, Inc. Gaithersburg, Md., USA) at room temperature for 2 hr. The blocking buffer was removed, and the plates were inoculated in quadruplicate with bivalent IAs with a typical starting concentration of 125 nM. Serial dilutions were prepared in the 96-well plates using multichannel pipettes. Biotinylated vitronectin solution (0.1 μg/well) was added to each well as a standard competitor. The plates were incubated at room temperature for 3 h, washed, and the bound vitronectin was detected using NeutrAvidin-HRP conjugate at 0.01 μg/well (Pierce, Rockford, Ill., USA) and LumiGlo® chemiluminescent substrate system (KPL, Inc.). The luminescence was read using a FLUOstar™ OPTIMA Microplate Reader (Durham, N.C., USA). […] (Peptides International, Inc., Louisville, Ky., USA) was also tested using the same method as described above.
Briefly, purified integrin αvβ3 protein (Chemicon International, Temecula, Calif., USA) was applied to 96-well polystyrene microtiter plates for overnight incubation at 4° C. The plates were washed and then blocked with milk solution (KPL, Inc., Gaithersburg, Md., USA) and the plates were inoculated in quadruplicate with multivalent IAs at different concentrations. Biotinylated vitronectin solution was added to each well as a standard competitor. The plates were incubated at room temperature, washed, and the bound vitronectin detected using NeutrAvidin-HRP® conjugate (Pierce, Rockford, Ill., USA) and LumiGlo® chemiluminescent substrate system (KPL, Inc., Gaithersburg, Md., USA). The luminescence was read using a FLUOstar® OPTIMA Microplate Reader (Durham, N.C., USA).
In vitro Binding Affinity Assay. Purified integrin αvβ3 protein (Chemicon International, Temecula, Calif., USA) was applied to 96-well polystyrene microtiter plates at 1 μg/well. After overnight incubation at 4° C., the plates were washed and then blocked with milk solution (KPL, Inc., Gaithersburg, Md., USA) at room temperature for 2 hr. The blocking buffer was removed, and the plates were inoculated in quadruplicate with bivalent IAs with a typical starting concentration of 125 nM. Serial dilutions were prepared in the 96-well plates using multichannel pipettes. Biotinylated vitronectin solution (0.1 μg/well) was added to each well as a standard competitor.
The plates were incubated at room temperature for 3 hr, washed, and the bound vitronectin was detected using NeutrAvidin-HRP conjugate at 0.01 μg/well (Pierce, Rockford, Ill., USA) and LumiGlo® chemiluminescent substrate system (KPL, Inc.). The luminescence was read using a FLUOstar OPTIMA Microplate Reader (Durham, N.C., USA). […] It measured competitive binding of the integrin antagonist and biotinylated human vitronectin for the immobilized receptor αvβ3.

For series [1], the system named is U-87 MG (ATCC HTB-14) glioblastoma cells over-expressing integrin αvβ3. As to the kind of experiment: Fluorescence microscopy probe binding assay in U-87 cells. Format: cell-based, human. The following applies: 200 nM, 37° C., 45 min, confocal microscopy. As to the method:
Fluorescence Microscopy Studies. […] For fluorescence microscopy studies, 1×10^4 U-87 cells were cultured on 35 mm MatTek glass bottom culture dishes. After 24 hr, cells were washed with PBS and then incubated with bivalent-IA-Cy5.5 (200 nM) at 37° C. for 45 min. Integrin specificity of the probe binding was verified by incubating U-87 cells with and without a blocking dose of the non-fluorescent bivalent IA (20 μmol/L). After the incubation period, the cells were washed three times with ice-cold PBS. The fluorescence signal of the cells was recorded using FluoView® 1000 Laser Scanning Confocal Microscope (Olympus, Center Valley, Pa., USA) under a 40× oil-immersion objective, with laser excitation at 675 nm (Cy5.5). A differential interference contrast image was also recorded so that the origin of fluorescent signals could be confirmed.

For another series, the system named is U-87 xenograft tumors. As to the kind of experiment: In vivo and ex vivo NIR fluorescence imaging of U-87 xenograft tumor-bearing mice. How it is done:
U-87 MG Xenograft Model, Animal procedures were performed according to approved protocols. Female athymic nude mice (nu/nu), obtained from Charles River Laboratories, Inc. (Cambridge, Mass., USA) at 4-6 weeks of age, were injected subcutaneously in the right rear thigh with 1×10^7 U-87 MG cells suspended in 100 μL of phosphate-buffered saline (PBS). The cancer cells were harvested from sub-confluent cultures with 0.25% trypsin. Trypsinization was stopped with DMEM containing 10% FBS, after which the cells were washed once in serum-free medium and resuspended in PBS. Trypan blue exclusion was performed to ensure >90% cell viability. The tumor bearing mice were subjected to in vivo imaging studies when the tumors reached 0.4-0.6 cm in diameter.
In vivo Fluorescence Imaging of Tumors. ˜3×10^6 U-87 cells were implanted bilaterally in the posterior flanks of immunocompromised (nu/nu) mice and grown to ˜4 to 6 mm in diameter. Imaging was carried out in groups of five mice. After palpable masses were detected, animals were manually restrained and imaging probes were intravenously administered (lateral tail vein) using a 30-Ga needle via aseptic technique. Free Cy5.5 was prepared by dissolving the same Cy5.5NHS ester used for labeling the bivalent IA (GE Healthcare, Piscatway, N.J., USA) in phosphate buffered saline (PBS), pH 7.4 overnight at 4° C. Stock concentration of free Cy5.5 was measured optically using the molar extinction coefficient of 250000M-1 cm-1 using a UV-visible spectrophotometer at the maximum absorbance wavelength (675 nm) as recommended by the manufacturer. The bivalent-IA-Cy5.5 was weighed and confirmed by spectrophotometric measurement. Appropriate dilutions of each probe were made in PBS, pH 7.4, and each was filter sterilized (0.2-μm) immediately prior to use. All animals weighed between 18 and 20 g, and each received 10 nmol of imaging probe (in a total volume of 100 μL). Fluorescence imaging was performed with a small animal-dedicated optical imaging system (Xenogen/Caliper IVIS-200, Mountain View, Calif., USA) under continuous 1.5-2.0% isoflurane delivered through the integrated anesthesia nosecone system. At 2-, 4-, 7-, 24-, and 48-hrs' post-injection, images were acquired with the surface of the tissue of interest (tumor) approximating a perpendicular viewing angle relative to the camera line of sight; this viewing angle was also used for normal tissue selection.
For determining tumor contrast, mean fluorescence intensities of the tumor area (T) defined as radiance (photons/sec/cm2/sr) at the right rear leg of the animal and of the area (N) at the right flank (normal tissue) were calculated by region-of-interest (ROI) analysis using the corresponding photograph of each image acquisition dataset to identify the tumor region. Pre-injection imaging was also performed to determine baseline autofluorescence. For competitive inhibition studies, mice (n=3) were co-injected with 500 nmol bivalent IA and 10 nmol of imaging probe (bivalent-IA-Cy5.5) following the same procedure described above. Free Cy5.5 studies were performed in the same manner following the intravenous injection of 10 nmol. For ex vivo biodistribution imaging, two tumor-bearing mice were imaged 24 hrs post injection of bivalent-IA-Cy5.5 and thereafter euthanized per IACUC protocol (CO2 and cervical dislocation). Tumor and major internal organs (heart, lung, liver, spleen, gastrointestinal tract, and kidneys) were harvested, weighed, and imaged against a black paper background. All image acquisition parameters were as follows: epi-illumination; Cy5.5 Em/Ex; Bin: (HR)4, FOV: 12.9; f2; 0.2 sec.

Where [2] appears, read: Example 2, PEG-linked ligands, averages of at least three determinations, read-out: In vitro EL1SA IC50.

For the compound `O=C(NCCS(=O)(=O)N[C@@H](CNC(=O)c1ccc(OCCNC2=NCCCN2)cc1)C(=O)O)OCCOCCOCCOC(=O)NCCS(=O)(=O)N[C@@H](CNC(=O)c1ccc(OCCNC2=NCCCN2)cc1)C(=O)O` [Compound 3], the IC50 at purified human αvβ3 (setting [2]) worked out at 0.16 nM.

For `O=C(NCCS(=O)(=O)N[C@@H](CNC(=O)c1ccc(OCCNC2=NCCCN2)cc1)C(=O)O)OCCOCCOCCOCCOC(=O)NCCS(=O)(=O)N[C@@H](CNC(=O)c1ccc(OCCNC2=NCCCN2)cc1)C(=O)O` [Compound 4], the IC50 on purified human αvβ3 (setting [2]) was 0.16 nM.

Turning to `O=C(NCCS(=O)(=O)N[C@@H](CNC(=O)c1ccc(OCCNC2=NCCCN2)cc1)C(=O)O)OCCOCCOCCOCCOCCOCCOCCOCCOC(=O)NCCS(=O)(=O)N[C@@H](CNC(=O)c1ccc(OCCNC2=NCCCN2)cc1)C(=O)O` [Compound 5], the IC50 at purified human αvβ3 (setting [2]) worked out at 0.16 nM.

As for `CC(C)(CNC(=O)OCCOCCOCCOC(=O)NCC(C)(C)COC(=O)NCCS(=O)(=O)N[C@@H](CNC(=O)c1ccc(OCCNC2=NCCCN2)cc1)C(=O)O)COC(=O)NCCS(=O)(=O)N[C@@H](CNC(=O)c1ccc(OCCNC2=NCCCN2)cc1)C(=O)O` [Compound 6], the IC50 at purified human αvβ3 (setting [2]) worked out at 0.09 nM. Also, the “higher affinity as compared to the corresponding monomer 2” value on purified human αvβ3 (compared to IAC 2) is given as about 23 fold.

For the compound `CC(C)(CNC(=O)OCCOCCOCCOCCOC(=O)NCC(C)(C)COC(=O)NCCS(=O)(=O)N[C@@H](CNC(=O)c1ccc(OCCNC2=NCCCN2)cc1)C(=O)O)COC(=O)NCCS(=O)(=O)N[C@@H](CNC(=O)c1ccc(OCCNC2=NCCCN2)cc1)C(=O)O` [Compound 7], the 50% inhibitory concentration (IC50) on purified human αvβ3 (setting [2]) came out at 0.11 nM.

With `CC(C)(CNC(=O)OCCOCCOCCOCCOCCOCCOCCOCCOC(=O)NCC(C)(C)COC(=O)NCCS(=O)(=O)NC(CNC(=O)c1ccc(OCCNC2=NCCCN2)cc1)C(=O)O)COC(=O)NCCS(=O)(=O)NC(CNC(=O)c1ccc(OCCNC2=NCCCN2)cc1)C(=O)O` (stereo not drawn) [Compound 8], the IC50 at purified human αvβ3 (setting [2]) was determined as 0.32 nM.

`CC(C)(CN)COC(=O)NCCS(=O)(=O)N[C@@H](CNC(=O)c1ccc(OCCNC2=NCCCN2)cc1)C(=O)O` [IAC 2]: on purified human αvβ3 (setting [2]), the IC50 was found to be 2.07 nM. Also, the “higher binding affinity as compared to monomer 1 (IA)” value is on record as “about 10 fold” on purified human αvβ3 and 10 fold on purified human αvβ3 (listed as 2).

As for `CC[N+]1=C(/C=C/C=C/C=C2/N(CCCCCC(=O)NC(CCCCCC(=O)NCCS(=O)(=O)N[C@@H](CNC(=O)c3ccc(OCCNC4=NCCCN4)cc3)C(=O)O)C(=O)NCCS(=O)(=O)N[C@@H](CNC(=O)c3ccc(OCCNC4=NCCCN4)cc3)C(=O)O)c3ccc4c(S(=O)(=O)O)cc(S(=O)(=O)O)cc4c3C2(C)C)C(C)(C)c2c1ccc1c(S(=O)(=O)[O-])cc(S(=O)(=O)O)cc21` (stereo partly drawn) [bivalent-IA-Cy5.5], the “endocytosis / binding of probe in U-87 cells” value in series [1] is reported as “endocytosis of the imaging probes; also recorded: integrin-mediated endocytosis”; in series [1] (listed as Bivalent-IA-Cy5.5 conjugate), “Receptor-mediated endocytosis was observed”; in series [1] (listed as bivalent-IA-Cy5.5 conjugate), “integrin-mediated endocytosis”. At purified human αvβ3 (Example 1 bivalent IA study, FIG. 4, read-out: IC50 of vitronectin binding to αvβ3 (ELISA)), the concentration for half-maximal inhibition (IC50) turned out to be 0.13 ± 0.02 nM. Further, in the series with U-87 xenograft tumors (10 nmol i.v.), the “tumor fluorescence signal / accumulation” value was “increased signal in tumor sites at 7, 24, and 48 hrs; also recorded: modest accumulation at the tumor site”. Also, the “tumor-to-normal tissue (T/N) fluorescence ratio, average maximum” value with U-87 xenograft tumors (10 nmol i.v., plateau at 24 hr, n=5) is on record as about 1.84. In the series with U-87 xenograft tumors (24 hrs post-injection, two animals), the “ex vivo signal per mass of tissue (biodistribution)” value is recorded as “The highest signal per mass of tissue was observed for the tumor”. In addition, the “blood-pool / circulation clearance rate” value in the series on U-87 xenograft tumors (inferred from fluorescence) was “relatively slow blood-pool clearance rate; also recorded: relatively slow clearance of the probe from the circulation”. Moreover, in the series on U-87 xenograft tumors (inferred from kidney fluorescence signal, 24 hrs), the route of clearance result is listed as “mainly renal clearance”. Further, the hepatic metabolism result in the series on U-87 xenograft tumors (inferred from minimal liver signal, 24 hrs) was “low hepatic metabolism”.

Consider `CCN1\C(=C/C=C/C=C/C2=[N+](CCCCCC(=O)O)c3ccc4c(S(=O)(=O)O)cc(S(=O)(=O)O)cc4c3C2(C)C)C(C)(C)c2c1ccc1c(S(=O)(=O)[O-])cc(S(=O)(=O)O)cc21` [free Cy5.5, reference compound], for which the “tumor fluorescence signal / accumulation” value in the series with U-87 xenograft tumors (10 nmol i.v.) is “slightly higher than the background but is lower than that achieved with the bivalent-IA-Cy5.5”.
